{"source": "paper PMC7939384", "about": "“In crystallo screening for proline analog inhibitors of the proline cycle enzyme PYCR1” (The Journal of Biological Chemistry, 2021)", "key": {"[1]": {"tested_on": "MCF10A hRAS^V12 breast cancer spheroids", "experiment": "13C5-glutamine tracer analysis of de novo proline biosynthesis in spheroids", "format": "cell-based", "conditions": "5 mM, 5th day of treatment, 13C5-glutamine incubation, vs untreated", "description": "We tested whether NFLP treatment decreases proline biosynthesis in breast cancer cells grown as spheroids. To do so we applied ^13C tracer analysis ([19]), which is a method that can inform about nutrient contribution to biosynthetic pathways, to MCF10A hRAS^V12 breast cancer spheroids grown in DMEM/F12 containing proline. Specifically, we measured the contribution of ^13C5-glutamine to proline, which enables us to conclude on changes in de novo proline biosynthesis.\nFigure 7 NFLP targets proline metabolism in breast cancer spheroids.A, abundance of proline M + 0 and M + 5 labeling in MCF10A hRAS^V12 spheroids upon ^13C5-glutamine incubation and treatment without (n = 3) or with NFLP (5 mM; n = 3). Analysis was performed at 5th day of treatment. B, relative abundance of intracellular proline levels in MCF10A hRAS^V12 spheroids upon treatment (5 days) without (n = 6), with THFA (n = 3) or with NFLP (n = 6). C, protein content in MCF10A hRAS^V12 spheroids treated for 5 days without (n = 6), with THFA (n = 3) or with NFLP (n = 6). Bar graphs show mean ± S.D. from biological independent samples and P-values were obtained with Mann-Whitney tests. […]\nTHFA and NFLP were supplemented (pH neutralized with NaOH) at day zero to the media of MCF10A H-RAS^V12 cells at the concentration of 5 mM. Protein levels were detected with the use of a […] (Thermo Scientific). […]"}, "[2]": {"tested_on": "MCF10A hRAS^V12 spheroids", "experiment": "Spheroid growth based on protein content", "format": "cell-based", "conditions": "5 mM, 5 days"}}, "data": [{"smiles": "O=CN1CCC[C@H]1C(=O)O", "note": "[NFLP, N-formyl L-proline]", "values": [{"measurement": "13C-labeled (M + 5) fraction of proline", "setting": "[1]", "value": "decreased"}, {"measurement": "unlabeled (M + 0) fraction of proline", "setting": "[1]", "value": "increased"}, {"measurement": "reduction of spheroid growth based on protein content compared with control", "setting": "[2]", "value": 50, "unit": "%"}]}]}
